Measurements as given in patent US20200055839A1 (priority 2017, published 2020).

Test system: NL-RLuc virus
Assay: Inhibition of HIV replication (NL-RLuc virus, luciferase readout in MT-2 cells)
Format: cell-based
Settings: Human immunodeficiency virus 1, MT2, 120 h, MT-2 cells infected with NL-RLuc virus, 5 days of incubation, 10% FBS, at least 2 experiments
Summary of the method: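 EC50 derived via median effect equation from at least 2 experiments, using luciferase expression as virus-growth readout. Replication-competent NL-RLuc reporter virus (nef partly replaced by Renilla luciferase) infected MT-2 cells with serial compound dilutions; 5-day incubation in RPMI 1640 plus 10% FBS.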

## Cc1cccc(CCOc2ccc(-c3cnc(C)c([C@H](OC(C)(C)C)C(=O)O)c3N3CCC(C)(C)CC3)nc2)c1 [Example 290, (2S)-2-(tert-butoxy)-2-[4′-(4,4-dimethylpiperidin-1-yl)-6′-methyl-5-[2-(3-methylphenyl)ethoxy]-[2,3′-bipyridine]-5′-yl]acetic acid]
  EC50: 1 nM

## CN(Cc1nc(Cl)c([C@H](OC(C)(C)C)C(=O)O)c(N2CCC(C)(C)CC2)c1-c1ccc(OCCc2ccc(F)cc2)cc1)CC1CCOCC1 [Example 213, (S)-2-(tert-Butoxy)-2-(2-chloro-4-(4,4-dimethylpiperidin-1-yl)-5-(4-(4-fluorophenethoxy)phenyl)-6-((methyl((tetrahydro-2H-pyran-4-yl)methyl)amino)methyl)pyridin-3-yl)acetic acid]
  EC50: 0.6 nM

## Cc1ncc(-c2ccc(CCC(C)C)cn2)c(N2CCC(C)(C)CC2)c1[C@H](OC(C)(C)C)C(=O)O [Example 273, (S)-2-(tert-Butoxy)-2-(4′-(4,4-dimethylpiperidin-1-yl)-5-isopentyl-6′-methyl-[2, 3′-bipyridin]-5′-yl)acetic acid]
  EC50: 4 nM

## Cc1ncc(-c2cnc(OCCc3ccc(Cl)cc3Cl)c(F)c2)c(N2CCC(C)(C)CC2)c1[C@H](OC(C)(C)C)C(=O)O [Example 234, (S)-2-(tert-Butoxy)-2-(6′-(2,4-dichlorophenethoxy)-4-(4,4-dimethylpiperidin-1-yl)-5′-fluoro-6-methyl-[3, 3′-bipyridin]-5-yl)acetic acid]
  EC50: 4 nM

## Cc1ncc(-c2ccc(OCCc3ccc(F)cc3)cn2)c(N2CCC(C)(C)CC2)c1[C@H](OC(C)(C)C)C(=O)O [Example 126, (2S)-2-(tert-Butoxy)-2-[4′-(4,4-dimethylpiperidin-1-yl)-5-[2-(4-fluorophenyl)ethoxy]-6′-methyl-[2, 3′-bipyridine]-5′-yl]acetic acid]
  EC50: 0.4 nM

## COc1cccc(-c2cnc(C)c([C@H](OC(C)(C)C)C(=O)O)c2N2CCC(C)(C)CC2)c1F [Example 156, (2S)-2-(tert-Butoxy)-2-[4-(4,4-dimethylpiperidin-1-yl)-5-(2-fluoro-3-methoxyphenyl)-2-methylpyridin-3-yl]acetic acid]
  EC50: 1 nM

## Cc1ncc(-c2ncc(OCCc3ccc(F)cc3)cc2F)c(N2CCC(C)(C)CC2)c1[C@H](OC(C)(C)C)C(=O)O [Example 233, (S)-2-(tert-Butoxy)-2-(4′-(4,4-dimethylpiperidin-1-yl)-3-fluoro-5-(4-fluorophenethoxy)-6′-methyl-[2, 3′-bipyridin]-5′-yl)acetic acid]
  EC50: 2 nM

## CC1(C)CCN(c2c(-c3ccc(OCCc4ccc(F)cc4)cn3)cnc(Cl)c2[C@H](OC(C)(C)C)C(=O)O)CC1 [Example 225, (2S)-2-(tert-Butoxy)-2-[6′-chloro-4′-(4,4-dimethylpiperidin-1-yl)-5-[2-(4-fluorophenyl)ethoxy]-[2, 3′-bipyridine]-5′-yl]acetic acid]
  EC50: 1 nM

## CCCCOc1ccc(-c2cnc(C)c([C@H](OC(C)(C)C)C(=O)O)c2N2CCC(C)(C)CC2)nc1 [Example 313, (2S)-2-(tert-butoxy)-2-[5-butoxy-4′-(4,4-dimethylpiperidin-1-yl)-6′-methyl-[2,3′-bipyridine]-5′-yl]acetic acid]
  EC50: 1 nM

## Cc1ccccc1CCOc1ncc(-c2cnc(C)c([C@H](OC(C)(C)C)C(=O)O)c2N2CCC(C)(C)CC2)cc1F [Example 385, (2S)-2-(tert-butoxy)-2-[4-(4,4-dimethylpiperidin-1-yl)-5′-fluoro-6-methyl-6′-[2-(2-methylphenyl)ethoxy]-[3,3′-bipyridine]-5-yl]acetic acid]
  EC50: 3 nM

## COc1ccc(-c2cnc(C)c([C@H](OC(C)(C)C)C(=O)O)c2N2CCC(C)(C)CC2)c(F)c1F [Example 149, (2S)-2-(tert-Butoxy)-2-[5-(2,3-difluoro-4-methoxyphenyl)-4-(4,4-dimethylpiperidin-1-yl)-2-methylpyridin-3-yl]acetic acid]
  EC50: 6 nM

## Cc1nc(OCCO)c(-c2ccc(OCCc3ccc(F)cc3)cc2)c(N2CCC(C)(C)CC2)c1[C@H](OC(C)(C)C)C(=O)O [Example 103, (S)-2-(tert-Butoxy)-2-(4-(4,4-dimethylpiperidin-1-yl)-5-(4-(4-fluorophenethoxy)phenyl)-6-(2-hydroxyethoxy)-2-methylpyridin-3-yl)acetic acid]
  EC50: 2 nM

## CC1(C)CCN(c2c(-c3ccc(CNc4ncnc5c4oc4ccccc45)c(F)c3)cnc(Cl)c2[C@H](OC(C)(C)C)C(=O)O)CC1 [Example 221, (S)-2-(5-(4-((Benzofuro[3,2-d]pyrimidin-4-ylamino)methyl)-3-fluorophenyl)-2-chloro-4-(4,4-dimethylpiperidin-1-yl)pyridin-3-yl)-2-(tert-butoxy)acetic acid]
  EC50: 0.3 nM

## COc1c(F)cc(-c2c(CN(C)C)nc(C)c([C@H](OC(C)(C)C)C(=O)O)c2N2CCC(C)(C)CC2)cc1F [Example 197, (2S)-2-(tert-Butoxy)-2-[5-(3,5-difluoro-4-methoxyphenyl)-6-[(dimethylamino)methyl]-4-(4,4-dimethylpiperidin-1-yl)-2-methylpyridin-3-yl]acetic acid]
  EC50: 11 nM

## Cc1nc(NCCc2c[nH]cn2)c(-c2ccc(OCCc3ccc(F)cc3)cc2)c(N2CCC(C)(C)CC2)c1[C@H](OC(C)(C)C)C(=O)O [Example 32, (S)-2-(6-((2-(H-Imidazol-4-yl)ethyl)amino)-4-(4,4-dimethylpiperidin-1-yl)-5-(4-(4-fluorophenethoxy)phenyl)-2-methylpyridin-3-yl)-2-(tert-butoxy)acetic acid]
  EC50: 5 nM

## CCCOc1ccc(CCOc2ccc(-c3cnc(C)c([C@H](OC(C)(C)C)C(=O)O)c3N3CCC(C)(C)CC3)nc2)cc1 [Example 325, (2S)-2-(tert-butoxy)-2-[4′-(4,4-dimethylpiperidin-1-yl)-6′-methyl-5-[2-(4-propoxyphenyl)ethoxy]-[2,3′-bipyridine]-5′-yl]acetic acid]
  EC50: 3 nM

## COc1ccc(CCOc2ncc(-c3cnc(C)c([C@H](OC(C)(C)C)C(=O)O)c3N3CCC(C)(C)CC3)cc2F)cc1 [Example 374, (2S)-2-(tert-butoxy)-2-[4-(4,4-dimethylpiperidin-1-yl)-5′-fluoro-6′-[2-(4-methoxyphenyl)ethoxy]-6-methyl-[3,3′-bipyridine]-5-yl]acetic acid]
  EC50: 0.3 nM

## CCC(C)(C)O[C@H](C(=O)O)c1c(C)ncc(-c2ncc(OCCc3ccc(F)cc3)cn2)c1N1CCC(C)(C)CC1 [Example 247, (S)-2-(4-(4,4-Dimethylpiperidin-1-yl)-5-(5-(4-fluorophenethoxy)pyrimidin-2-yl)-2-methylpyridin-3-yl)-2-(tert-pentyloxy)acetic acid]
  EC50: 0.8 nM

## Cc1ncc(-c2cnc(O[C@@H](C)c3ccccc3)c(F)c2)c(N2CCC(C)(C)CC2)c1[C@H](OC(C)(C)C)C(=O)O [Example 400, (2S)-2-(tert-butoxy)-2-[4-(4,4-dimethylpiperidin-1-yl)-5′-fluoro-6-methyl-6′-[(1S)-1-phenylethoxy]-[3,3′-bipyridine]-5-yl]acetic acid]
  EC50: 6 nM

## Cc1ncc(-c2cnc(OCCc3ccccc3)c(F)c2)c(N2CCC(C)(C)CC2)c1[C@H](OC(C)(C)C)C(=O)O [Example 240, (S)-2-(tert-Butoxy)-2-(4-(4,4-dimethylpiperidin-1-yl)-5′-fluoro-6-methyl-6′-phenethoxy-[3,3′-bipyridin]-5-yl)acetic acid]
  EC50: 1 nM

## COc1c(F)cc(-c2c(CNCC3CCOCC3)nc(Cl)c([C@H](OC(C)(C)C)C(=O)O)c2N2CCC(C)(C)CC2)cc1F [Example 203, (S)-2-(tert-Butoxy)-2-(2-chloro-5-(3,5-difluoro-4-methoxyphenyl)-4-(4,4-dimethylpiperidin-1-yl)-6-((((tetrahydro-2H-pyran-4-yl)methyl)amino)methyl)pyridin-3-yl)acetic acid]
  EC50: 7 nM

## CC1(C)CCN(c2c(-c3ccc(F)c(F)c3)c(CN3CCC4(CCC4)CC3)nc(Cl)c2[C@H](OC(C)(C)C)C(=O)O)CC1 [Example 207, (S)-2-(6-((7-Azaspiro[3.5]nonan-7-yl)methyl)-2-chloro-5-(3,4-difluorophenyl)-4-(4,4-dimethylpiperidin-1-yl)pyridin-3-yl)-2-(tert-butoxy)acetic acid]
  EC50: 36 nM

## Cc1ncc(-c2cnc(OCc3ccccc3)c(F)c2)c(N2CCC(C)(C)CC2)c1[C@H](OC(C)(C)C)C(=O)O [Example 378, (2S)-2-[6′-(benzyloxy)-4-(4,4-dimethylpiperidin-1-yl)-5′-fluoro-6-methyl-[3,3′-bipyridine]-5-yl]-2-(tert-butoxy)acetic acid]
  EC50: 2 nM

## Cc1cccc(CCOc2ncc(-c3cnc(C)c([C@H](OC(C)(C)C)C(=O)O)c3N3CCC(C)(C)CC3)cc2F)c1 [Example 372, (2S)-2-(tert-butoxy)-2-[4-(4,4-dimethylpiperidin-1-yl)-5′-fluoro-6-methyl-6′-[2-(3-methylphenyl)ethoxy]-[3,3′-bipyridine]-5-yl]acetic acid]
  EC50: 1 nM

## Cc1ncc(-c2ccc(OCCC(C)C)cn2)c(N2CCC(C)(C)CC2)c1[C@H](OC(C)(C)C)C(=O)O [Example 315, (2S)-2-(tert-butoxy)-2-[4′-(4,4-dimethylpiperidin-1-yl)-6′-methyl-5-(3-methylbutoxy)-[2,3′-bipyridine]-5′-yl]acetic acid]
  EC50: 2 nM

## Cc1nc(Nc2ccc(F)cn2)c(-c2ccc(OCCc3ccc(F)cc3)cc2)c(N2CCC(C)(C)CC2)c1[C@H](OC(C)(C)C)C(=O)O [Example 83, (S)-2-(tert-Butoxy)-2-(4-(4,4-dimethylpiperidin-1-yl)-5-(4-(4-fluorophenethoxy)phenyl)-6-((5-fluoropyridin-2-yl)amino)-2-methylpyridin-3-yl)acetic acid]
  EC50: 5 nM

## CC1(C)CCN(c2c(-c3ccc(OCCc4ccc(F)cc4)cc3)cnc(CO)c2[C@H](OC(C)(C)C)C(=O)O)CC1 [Example 8, (S)-2-(tert-Butoxy)-2-(4-(4,4-dimethylpiperidin-1-yl)-5-(4-(4-fluorophenethoxy)phenyl)-2-(hydroxymethyl)pyridin-3-yl)acetic acid]
  EC50: 3 nM
